Patent US20260285850A1, “SUBSTITUTED OXAZOLIDINONES AND IMIDAZOLINONES AS HERBICIDES” (FMC CORPORATION, priority 2023, published 2026)

Columns and labels:
Assay type in all cases: in vivo
[1] = test system: wheat (Triticum aestivum); test: Test A preemergence soil spray, visual injury rating 0-100; conditions: 10 days; for Wheat plant response rating: 31 g ai/ha, 0 to 100 scale; for Wheat plant response rating (0 to 100 scale): 125 g ai/ha, 0 = no effect, 100 = complete control
Source text: (§1) Seeds of plant species selected from barnyardgrass (Echinochloa crus-galli), blackgrass (Alopecurus myosuroides), corn (Zea mays), foxtail, giant (giant foxtail, Setaria faberi), green foxtail (Setaria viridis), goosegrass (Eleusine indica), kochia (Bassia scoparia), oat, wild (wild oat, Avena fatua), palmer (palmer amaranth, palmer pigweed, Amaranthus palmeri), ragweed (common ragweed, Ambrosia artemisiifolia), ryegrass, Italian (italian ryegrass, Lolium multiflorum), soybean (Glycine max) and wheat (Triticum aestivum) were planted into a blend of loam soil and sand and treated preemergence with a directed soil spray using test chemicals formulated in a non-phytotoxic solvent mixture which included a surfactant.
(§2) At the same time, plants selected from these crops and weed species and also galium (catchweed bedstraw, Galium aparine) and horseweed (Erigeron canadensis) were planted in pots containing the same blend of loam soil and sand and treated with postemergence applications of test chemicals formulated in the same manner. Plants ranged in height from 2 to 10 cm and were in the one- to two-leaf stage for the postemergence treatment. Treated plants and untreated controls were maintained in a greenhouse for 10 days, after which time all treated plants were compared to untreated controls and visually evaluated for injury. Plant response ratings, summarized in Table A, are based on a 0 to 100 scale where 0 is no effect and 100 is complete control. A dash (-) response means no test result.

[2] = test system: ragweed (common ragweed, Ambrosia artemisiifolia); test: as above; conditions: 10 days; for Ragweed plant response rating: 31 g ai/ha, 0 to 100 scale; for Ragweed plant response rating (0 to 100 scale): 125 g ai/ha, 0 = no effect, 100 = complete control
Source text: as §1, §2

[3] = test system: blackgrass (Alopecurus myosuroides); test: as above; conditions: 10 days; for Blackgrass plant response rating: 31 g ai/ha, 0 to 100 scale; for Blackgrass plant response rating (0 to 100 scale): 125 g ai/ha, 0 = no effect, 100 = complete control
Source text: as §1, §2

kochia (Bassia scoparia) [4] = test: as above; conditions: 10 days; for Kochia plant response rating: 31 g ai/ha, 0 to 100 scale; for Kochia plant response rating (0 to 100 scale): 125 g ai/ha, 0 = no effect, 100 = complete control
Source text: as §1, §2

[5] = test system: barnyardgrass (Echinochloa crus-galli); test: as above; conditions: 10 days; for Barnyardgrass plant response rating: 31 g ai/ha, 0 to 100 scale; for Barnyardgrass plant response rating (0 to 100 scale): 125 g ai/ha, 0 = no effect, 100 = complete control
Source text: as §1, §2

[6] = test system: ryegrass, Italian (italian ryegrass, Lolium multiflorum); test: as above; conditions: 10 days; for Ryegrass, Italian plant response rating: 31 g ai/ha, 0 to 100 scale; for Ryegrass, Italian plant response rating (0 to 100 scale): 125 g ai/ha, 0 = no effect, 100 = complete control
Source text: as §1, §2

[7] = test system: palmer (palmer amaranth, palmer pigweed, Amaranthus palmeri); test: as above; conditions: 10 days; for Amaranth, Palmer (Pigweed, Palmer) plant response rating: 31 g ai/ha, 0 to 100 scale; for Amaranth, Palmer plant response rating (0 to 100 scale): 125 g ai/ha, 0 = no effect, 100 = complete control
Source text: as §1, §2

corn (Zea mays) [8] = test: as above; conditions: 10 days; for Corn plant response rating: 31 g ai/ha, 0 to 100 scale; for Corn plant response rating (0 to 100 scale): 125 g ai/ha, 0 = no effect, 100 = complete control
Source text: as §1, §2

soybean (Glycine max) [9] = test: as above; conditions: 10 days; for Soybean plant response rating: 31 g ai/ha, 0 to 100 scale; for Soybean plant response rating (0 to 100 scale): 125 g ai/ha, 0 = no effect, 100 = complete control
Source text: as §1, §2

[10] = test system: oat, wild (wild oat, Avena fatua); test: as above; conditions: 10 days; for Oat, Wild plant response rating: 31 g ai/ha, 0 to 100 scale; for Oat, Wild plant response rating (0 to 100 scale): 125 g ai/ha, 0 = no effect, 100 = complete control
Source text: as §1, §2

[11] = test system: wheat (Triticum aestivum); test: Test A postemergence application, visual injury rating 0-100; conditions: Postemergence
Source text: as §1, §2

[12] = test system: ragweed (common ragweed, Ambrosia artemisiifolia); test: as above; conditions: Postemergence
Source text: as §1, §2

[13] = test system: blackgrass (Alopecurus myosuroides); test: as above; conditions: Postemergence
Source text: as §1, §2

kochia (Bassia scoparia) [14] = test: as above; conditions: Postemergence
Source text: as §1, §2

[15] = test system: barnyardgrass (Echinochloa crus-galli); test: as above; conditions: Postemergence
Source text: as §1, §2

[16] = test system: ryegrass, Italian (italian ryegrass, Lolium multiflorum); test: as above; conditions: Postemergence
Source text: as §1, §2

[17] = test system: galium (catchweed bedstraw, Galium aparine); test: as above; conditions: Postemergence
Source text: as §1, §2

[18] = test system: palmer (palmer amaranth, palmer pigweed, Amaranthus palmeri); test: as above; conditions: Postemergence
Source text: as §1, §2

[19] = test system: horseweed (Erigeron canadensis); test: as above; conditions: Postemergence
Source text: as §1, §2

corn (Zea mays) [20] = test: as above; conditions: Postemergence
Source text: as §1, §2

soybean (Glycine max) [21] = test: as above; conditions: Postemergence
Source text: as §1, §2

[22] = test system: oat, wild (wild oat, Avena fatua); test: as above; conditions: Postemergence
Source text: as §1, §2

[23] = 31 g ai/ha, greenhouse 10 days, 0 no effect, 100 complete control
[24] = 125 g ai/ha, 10 days, 0 is no effect, 100 is complete control

For `CCS(=O)(=O)NC(=O)C1C=CC(NC(=O)C2(C)CN(c3cc(Cl)cc(Cl)c3)C(=O)O2)C1` (stereo not shown) [Compound 83], the “Wheat plant response rating” value [1] was 0, the “Wheat plant response rating (0 to 100 scale)” value [1] was 60 and the “Ragweed plant response rating” value [2] was 0. For the same compound, the “Ragweed plant response rating (0 to 100 scale)” value [2] was 20, the “Blackgrass plant response rating” value [3] was 0 and the “Blackgrass plant response rating (0 to 100 scale)” value [3] was 40. The “Kochia plant response rating” value (kochia (Bassia scoparia) [4]) was 0, the “Kochia plant response rating (0 to 100 scale)” value (kochia (Bassia scoparia) [4]) was 90 and the “Barnyardgrass plant response rating” value [5] was 30. The “Barnyardgrass plant response rating (0 to 100 scale)” value [5] was 70, the “Ryegrass, Italian plant response rating” value [6] was 60 and the “Ryegrass, Italian plant response rating (0 to 100 scale)” value (“Ryegrass … (0 to 100 scale)” below) [6] was 80. For the same compound, the “Amaranth, Palmer (Pigweed, Palmer) plant response rating” value [7] was 70, the “Amaranth, Palmer plant response rating (0 to 100 scale)” value [7] was 100 and the “Corn plant response rating” value (corn (Zea mays) [8]) was 0. The “Corn plant response rating (0 to 100 scale)” value (corn (Zea mays) [8]) was 60, the “Soybean plant response rating” value (soybean (Glycine max) [9]) was 40 and the “Soybean plant response rating (0 to 100 scale)” value (soybean (Glycine max) [9]) was 10. For the same compound, the “Oat, Wild plant response rating” value [10] was 0, the “Oat, Wild plant response rating (0 to 100 scale)” value (shortened to “Oat … (0 to 100 scale)”) [10] was 60 and the “Wheat plant response rating (0 to 100 scale)” value [11, 23] was 90. The “Wheat plant response rating (0 to 100 scale)” value [11, 24] was 90, the “Ragweed plant response rating (0 to 100 scale)” value [12, 23] was 60 and the “Ragweed plant response rating (0 to 100 scale)” value [12, 24] was 80. The “Blackgrass plant response rating (0 to 100 scale)” value [13, 23] was 60, the “Blackgrass plant response rating (0 to 100 scale)” value [13, 24] was 90 and the “Kochia plant response rating (0 to 100 scale)” value (kochia (Bassia scoparia) [14]; [23]) was 70. For the same compound, the “Kochia plant response rating (0 to 100 scale)” value (kochia (Bassia scoparia) [14]; [24]) was 70, the “Barnyardgrass plant response rating (0 to 100 scale)” value [15, 23] was 90 and the “Barnyardgrass plant response rating (0 to 100 scale)” value [15, 24] was 90. For the same compound, the “Ryegrass … (0 to 100 scale)” value [16, 23] was 60, the “Ryegrass … (0 to 100 scale)” value [16, 24] was 70 and the “Galium plant response rating (0 to 100 scale)” value (shortened to “Galium plant response rating”) [17, 23] was 80. The “Galium plant response rating” value [17, 24] was 80, the “Amaranth, Palmer / Pigweed, Palmer plant response rating (0 to 100 scale)” value (from here on “Amaranth, Palmer / Pigweed”) [18, 23] was 80 and the “Amaranth, Palmer / Pigweed” value [18, 24] was 90. The “Horseweed plant response rating (0 to 100 scale)” value (“Horseweed plant response rating” for short) [19, 23] was 20, the “Horseweed plant response rating” value [19, 24] was 70 and the “Corn plant response rating (0 to 100 scale)” value (corn (Zea mays) [20]; [23]) was 20. The “Corn plant response rating (0 to 100 scale)” value (corn (Zea mays) [20]; [24]) was 90, the “Soybean plant response rating (0 to 100 scale)” value (soybean (Glycine max) [21]; [23]) was 20 and the “Soybean plant response rating (0 to 100 scale)” value (soybean (Glycine max) [21]; [24]) was 60. The “Oat … (0 to 100 scale)” value [22, 23] was 80 and the “Oat … (0 to 100 scale)” value [22, 24] was 90.
In the case of `CC1(C(=O)NC2C=CC(C(=O)NS(=O)(=O)C3CC3)C2)CN(c2cc(Cl)cc(Cl)c2)C(=O)O1` (stereo not shown) [Compound 85], the “Wheat plant response rating” value [1] is reported as 0, the “Wheat plant response rating (0 to 100 scale)” value [1] is reported as 90 and the “Ragweed plant response rating” value [2] is reported as 30. The “Ragweed plant response rating (0 to 100 scale)” value [2] was 20, the “Blackgrass plant response rating” value [3] was 0 and the “Blackgrass plant response rating (0 to 100 scale)” value [3] was 20. For the same compound, the “Kochia plant response rating” value (kochia (Bassia scoparia) [4]) was 20, the “Kochia plant response rating (0 to 100 scale)” value (kochia (Bassia scoparia) [4]) was 90 and the “Barnyardgrass plant response rating” value [5] was 20. The “Barnyardgrass plant response rating (0 to 100 scale)” value [5] was 90, the “Ryegrass, Italian plant response rating” value [6] was 60 and the “Ryegrass … (0 to 100 scale)” value [6] was 80. For the same compound, the “Amaranth, Palmer (Pigweed, Palmer) plant response rating” value [7] was 80, the “Amaranth, Palmer plant response rating (0 to 100 scale)” value [7] was 90 and the “Corn plant response rating” value (corn (Zea mays) [8]) was 0. For the same compound, the “Corn plant response rating (0 to 100 scale)” value (corn (Zea mays) [8]) was 30, the “Soybean plant response rating” value (soybean (Glycine max) [9]) was 0 and the “Soybean plant response rating (0 to 100 scale)” value (soybean (Glycine max) [9]) was 10. The “Oat, Wild plant response rating” value [10] was 20, the “Oat … (0 to 100 scale)” value [10] was 50 and the “Wheat plant response rating (0 to 100 scale)” value [11, 23] was 80. For the same compound, the “Wheat plant response rating (0 to 100 scale)” value [11, 24] was 90, the “Ragweed plant response rating (0 to 100 scale)” value [12, 23] was 30 and the “Ragweed plant response rating (0 to 100 scale)” value [12, 24] was 60. The “Blackgrass plant response rating (0 to 100 scale)” value [13, 23] was 60, the “Blackgrass plant response rating (0 to 100 scale)” value [13, 24] was 80 and the “Kochia plant response rating (0 to 100 scale)” value (kochia (Bassia scoparia) [14]; [23]) was 50. For the same compound, the “Kochia plant response rating (0 to 100 scale)” value (kochia (Bassia scoparia) [14]; [24]) was 70, the “Barnyardgrass plant response rating (0 to 100 scale)” value [15, 23] was 90 and the “Barnyardgrass plant response rating (0 to 100 scale)” value [15, 24] was 90. The “Ryegrass … (0 to 100 scale)” value [16, 23] was 60, the “Ryegrass … (0 to 100 scale)” value [16, 24] was 70 and the “Galium plant response rating” value [17, 23] was 50. For the same compound, the “Galium plant response rating” value [17, 24] was 80, the “Amaranth, Palmer / Pigweed” value [18, 23] was 40 and the “Amaranth, Palmer / Pigweed” value [18, 24] was 90. For the same compound, the “Horseweed plant response rating” value [19, 23] was 60, the “Horseweed plant response rating” value [19, 24] was 60 and the “Corn plant response rating (0 to 100 scale)” value (corn (Zea mays) [20]; [23]) was 20. The “Corn plant response rating (0 to 100 scale)” value (corn (Zea mays) [20]; [24]) was 90, the “Soybean plant response rating (0 to 100 scale)” value (soybean (Glycine max) [21]; [23]) was 40 and the “Soybean plant response rating (0 to 100 scale)” value (soybean (Glycine max) [21]; [24]) was 60. The “Oat … (0 to 100 scale)” value [22, 23] was 80 and the “Oat … (0 to 100 scale)” value [22, 24] was 90.
